Assay results taken from patent publication US12349673B2, “Emulsifiable concentrates” (priority 2018, dated 2025).

What was measured:
Format in all cases: physicochemical
[1] = Method A: solubility of active ingredient in solvent by NMR spectroscopy of a saturated solution; conditions: for Active Ingredient Solubility: Dicamba Acid: dicamba acid dissolved in the named solvent; for Active Ingredient Solubility: Nitrapyrin: nitrapyrin dissolved in the named solvent; for Active Ingredient Solubility: 2,4-D Acid: 2,4-dichlorophenoxyacetic acid dissolved in the named solvent; for Active Ingredient Solubility: MCPA: 2-methyl-4-chlorophenoxyacetic acid dissolved in the named solvent; for Active Ingredient Solubility: NBPT: N-(n-butyl)thiophosphoric triamide dissolved in the named solvent; for Active Ingredient Solubility: Bifenthrin: bifenthrin dissolved in the named solvent; for Active Ingredient Solubility: Tebuconazole: tebuconazole dissolved in the named solvent
Description: (§1) The solubilities of active ingredients in the Ether Ketone Solvents and Comparative Solvents are determined on a saturated solution of a given active ingredient in a given solvent using NMR spectroscopy (Method A, as described below), or by visual evaluation of a concentration ladder of a given active ingredient in a given solvent (Method B, as described below).
Method A: Solubility Determination by NMR Spectroscopy
A saturated solution of a given active ingredient in a solvent is prepared by initially combining the active ingredient (0.8 g) and solvent (1.5 mL) in a vial and stirring vigorously for at least 24 hours. If a homogeneous solution is obtained, additional active ingredient is added until a significant amount of solid remains out of solution. The mixtures (˜0.25 mL) are then filtered with a PTFE syringe filter (0.45 μm) into an NMR tube that contained C6D6 (0.5 mL). The NMR tubes are capped and analyzed on Varian 400 NMR spectrometer equipped with an auto sampler. Proton NMR spectra are referenced to the residual proton peak in the deuterated solvent. Spectra used for quantitation are collected with a 180 second delay between pulses. Spectra are processed in MestReNova (version 11.0.4-18998) by baseline (Bernstein Polynomials) and phase correcting each spectrum followed by integration of all well-resolved solvent and active resonances. Active ingredient weight percentages are estimated by the following formula:
(§2) [formula] When possible, several well-resolved peaks are used for both solvent and active ingredient, and averaged to provide an estimation of variability in the measurement. Method B: Solubility Determination by Visual Evaluation

[2] = Method B: solubility of active ingredient in solvent by visual evaluation of a concentration ladder; conditions: Method B (visual, 24 hours, 21° C.); for Active Ingredient Solubility: 2,4-D Acid: 2,4-dichlorophenoxyacetic acid dissolved in the named solvent; for Active Ingredient Solubility: MCPA: 2-methyl-4-chlorophenoxyacetic acid dissolved in the named solvent; for Active Ingredient Solubility: NBPT: N-(n-butyl)thiophosphoric triamide dissolved in the named solvent; for Active Ingredient Solubility: Bifenthrin: bifenthrin dissolved in the named solvent; for Active Ingredient Solubility: Tebuconazole: tebuconazole dissolved in the named solvent
Description: as §1, §2
Four-milliliter (mL) vials are charged with active ingredient (10 to 50 wt %), a stir bar, and solvent (90 to 50 wt %). The vials are capped and taped to seal. The vials are secured in a vial rack and shaken on a laboratory shaker for 24 hours at ambient lab temperature of 21° C. and 51% humidity. After 24 hours each sample set is evaluated for solubility of solid.

[3] = Solubility of Ether Ketone Solvent in water (dropwise addition, weighing); conditions: lab temperature 30° C.
Description: The solubilities of certain of the Ether Ketone Solvents in water are determined by adding water (˜10 to 50 grams) to a tared vial equipped with a stir bar. The weights of water are noted. The specified solvent is added dropwise using a 10 μL syringe until the mixture appeared to have solvent droplets suspended in the water. The mixture is weighed again and the weight percent solubility of the Ether Ketone Solvent in water is calculated.
(§3) The solubilities of water in certain of the Ether Ketone Solvents are also evaluated. A vial is charged with 5 grams of the specified solvent, and 3 Å activated molecular sieves (˜300 mg) are added. The vial is capped and the solvent left to dry for several days. The mixtures are filtered using a 0.2 μm syringe filter into a tared 20 mL vial and the weights are noted. Water is then added using a 10 μL syringe until the mixture appeared to have water droplets on the bottom of the vial. The mixture is weighed again and the weight percent solubility of water in the Ether Ketone solvent is calculated. The temperature in the lab is 30° C. at the time of the water solubility measurements.

[4] = Solubility of water in Ether Ketone Solvent (dropwise addition, weighing); conditions: water in dried solvent; lab temperature 30° C.
Description: as §3

Structure (SMILES)	Active Ingredient Solubility: Dicamba Acid [1] [wt %]	Active Ingredient Solubility: Nitrapyrin [1] [wt %]	Active Ingredient Solubility: 2,4-D Acid [2] [wt %]	Active Ingredient Solubility: MCPA [2] [wt %]	Active Ingredient Solubility: NBPT [2] [wt %]	Active Ingredient Solubility: Bifenthrin [2]	Active Ingredient Solubility: Tebuconazole [2] [wt %]	Active Ingredient Solubility: 2,4-D Acid [1] [wt %]	Active Ingredient Solubility: MCPA [1] [wt %]	Active Ingredient Solubility: NBPT [1] [wt %]	Active Ingredient Solubility: Bifenthrin [1] [wt %]	Active Ingredient Solubility: Tebuconazole [1] [wt %]	Solubility In Water [3] [wt %]	Solubility Water In [4] [wt %]
CC(=O)c1ccccc1 [Acetophenone]	49.8	55.4	<30	<30	<30	<50 wt %	<30							
CCCCOCC(=O)CC [BnB Ketone, 1-Butoxy-2-butanone]	48.9	55.0						15.6	21.6	21.0	42.6	16.9	0.43	0.11
CCCCCCOCC(=O)CC [BnH Ketone, 1-Hexyloxy-2-butanone]	42.5	46.2						12.8	17.5	13.6	37.3	13.5	0.22	0.02
CCCCCCCCOCC(=O)CC [BnO Ketone, 1-Octyloxy-2-butanone]	36.5	41.6						10.2	15.3	10.0	33.9	12.0		
O=C1CCCCC1 [Cyclohexanone]	62.4	65.2	<40	<50	<50	Sol. at 50 wt %	<50							
CCCCOCC(CC)OCC(=O)CC (stereo not drawn) [DBnB Ketone, 1-((1-Butoxy-2-butanyl)oxy)-2-butanone]	45.6	42.6						13.2	17.1	15.7	34.7	10.5		
CCCCCCOCC(CC)OCC(=O)CC (stereo not drawn) [DBnH Ketone, 1-((1-(Hexyloxy)-2-butanyl)oxy)-2-butanone]	42.5	39.8						10.9	17.2	10.5	33.8	11.2		
CCCCOCC(C)OCC(C)=O (stereo not drawn) [DPnB Ketone, 1-((1-(Butoxy)-2-propanyl)oxy)-2-propanone]	52.7	45.4						18.3	23.7	25.5	33.4	15.0	0.20	0.03
CCCCCCOCC(C)OCC(C)=O (stereo not drawn) [DPnH Ketone, 1-((1-(Hexyloxy)-2-propanyl)oxy)-2-propanone]	48.4	39.0						16.4	22.1	25.3	35.5	12.5	0.22	0.03
CCCCCOCC(C)OCC(C)=O (stereo not drawn) [DPnPent Ketone, 1-((1-(Pentyloxy)-2-propanyl)oxy)-2-propanone]	48.7	41.8						15.0	22.0	24.4	31.8	12.0		
CCCCOCC(C)=O [PnB Ketone, 1-Butoxy-2-propanone]	54.0	53.4						20.2	26.8	32.8	43.3	25.1	0.20	0.005
CCCCCCCCOCC(C)=O [PnO Ketone, 1-Octyloxy-2-propanone]	40.6	42.9						12.6	17.1	15.9	35.4	12.5		
CCCCCOCC(C)=O [PnPent Ketone, 1-Pentyloxy-2-propanone]	49.1	49.0						17.3	22.9	24.2	40.2	16.7		
CCCCOCC(C)OCC(C)OCC(C)=O (stereo not drawn) [TPnB Ketone, 1-((1-((1-Butoxy-2-propanyl)oxy)-2-propanyl)oxy)-2-propanone]	49.7	37.0						16.3	22.5	22.1	13.0	10.8		
